# Patent publication US20090018111A1, “Novel Antimicrobial Medicament” (priority 2004, published 2009)
# Like-named read-outs stand apart in the source and are kept apart here.
# What was measured:
# [1] = system: S. epidermidis IAM1296; test: Sensitivity test (agar dilution); format: cell-based, Staphylococcus epidermidis
# In short: (§1)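 Each strain, cultured overnight at 37° C and adjusted to about 10^6 CFU/ml in BSG, was spotted (about 5 μl) on Mueller Hinton agar with twofold serial drug concentrations. Inhibition defines the MIC.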
# [2] = system: E. faecalis ATCC19433; test: Sensitivity test (agar dilution); format: cell-based, Enterococcus faecalis
# In short: as §1
# [3] = system: E. coli ML1410 RP4; test: microbe, parasite or virus in culture; format: cell-based, Escherichia coli; details: Escherichia coli
# In short: as §1
smiles,measurement,setting,value
"C[C@H]1C=C(c2csc(SC3=C(C(=O)O)N4C(=O)[C@H]([C@@H](C)O)[C@H]4[C@H]3C)n2)CN1 [SM, (4R,5S,6S)-6-[(1R)-1-Hydroxyethyl]-4-methyl-3-({4-[(5S)-5-methyl-2,5-dihydro-1H-pyrrol-3-yl]-1,3-thiazol-2-yl}sulfanyl)-7-oxo-1-azabicyclo[3.2.0]hept-2-ene-2-carboxylic acid]",MIC,"[1]; Staphylococcus epidermidis, IAM1296, Concomitant (AZT:SM = 1:1), S. epidermidis IAM1296, read-out: MIC concomitant",0.031 µg/mL
same,MIC,"[1]; Staphylococcus epidermidis, IAM1296, Concomitant (BIPM:SM = 1:1), S. epidermidis IAM1296, read-out: MIC concomitant",0.031 µg/mL
same,MIC,"[1]; Staphylococcus epidermidis, IAM1296, Concomitant (CAZ:SM = 1:1), S. epidermidis IAM1296, read-out: MIC concomitant",0.031 µg/mL
same,MIC,"[1]; Staphylococcus epidermidis, IAM1296, Concomitant (CPFX:SM = 1:1), S. epidermidis IAM1296, read-out: MIC concomitant",0.031 µg/mL
same,MIC,"[1]; Staphylococcus epidermidis, IAM1296, Concomitant (DRPM:SM = 1:1), S. epidermidis IAM1296, read-out: MIC concomitant",0.031 µg/mL
same,MIC,"[1]; Staphylococcus epidermidis, IAM1296, Concomitant (IPM:SM = 1:1), read-out: MIC",0.016 µg/mL
same,MIC,"[1]; Staphylococcus epidermidis, IAM1296, Concomitant (MEPM:SM = 1:1), read-out: MIC",≤ 0.016 µg/mL
same,MIC,"[1]; Staphylococcus epidermidis, IAM1296, Concomitant (MEPM:SM = 1:2), read-out: MIC",≤ 0.031 µg/mL
same,MIC,"[1]; Staphylococcus epidermidis, IAM1296, Concomitant (MEPM:SM = 1:4), read-out: MIC",≤ 0.063 µg/mL
same,MIC,"[1]; Staphylococcus epidermidis, IAM1296, Concomitant (PAPM:SM = 1:1), S. epidermidis IAM1296, read-out: MIC concomitant",0.016 µg/mL
same,MIC,"[1]; Staphylococcus epidermidis, IAM1296, Concomitant (PIPC:SM = 1:1), S. epidermidis IAM1296, read-out: MIC concomitant",0.016 µg/mL
same,MIC,"[1]; Staphylococcus epidermidis, IAM1296, Concomitant drug (MEPM:SM = 2:1), read-out: MIC",0.031 µg/mL
same,MIC,"[1]; Staphylococcus epidermidis, IAM1296, alone, read-out: MIC",0.016 µg/mL
same,MIC,"[1]; Staphylococcus epidermidis, IAM1296, drug alone, S. epidermidis IAM1296, read-out: MIC alone",0.031 µg/mL
same,MIC,[1]; alone,0.031 µg/mL
same,MIC alone,"[1]; drug alone, S. epidermidis IAM1296",0.016 µg/mL
same,MIC,"[2]; Enterococcus faecalis, ATCC19433, Concomitant (AZT:SM = 1:1), E. faecalis ATCC19433, read-out: MIC concomitant",1 µg/mL
same,MIC,"[2]; Enterococcus faecalis, ATCC19433, Concomitant (BIPM:SM = 1:1), E. faecalis ATCC19433, read-out: MIC concomitant",1 µg/mL
same,MIC,"[2]; Enterococcus faecalis, ATCC19433, Concomitant (CAZ:SM = 1:1), E. faecalis ATCC19433, read-out: MIC concomitant",1 µg/mL
same,MIC,"[2]; Enterococcus faecalis, ATCC19433, Concomitant (CPFX:SM = 1:1), E. faecalis ATCC19433, read-out: MIC concomitant",0.5 µg/mL
same,MIC,"[2]; Enterococcus faecalis, ATCC19433, Concomitant (DRPM:SM = 1:1), E. faecalis ATCC19433, read-out: MIC concomitant",1 µg/mL
same,MIC,"[2]; Enterococcus faecalis, ATCC19433, Concomitant (IPM:SM = 1:1), read-out: MIC",0.5 µg/mL
same,MIC,"[2]; Enterococcus faecalis, ATCC19433, Concomitant (MEPM:SM = 1:1), read-out: MIC",1 µg/mL
same,MIC,"[2]; Enterococcus faecalis, ATCC19433, Concomitant (MEPM:SM = 1:2), read-out: MIC",1 µg/mL
same,MIC,"[2]; Enterococcus faecalis, ATCC19433, Concomitant (MEPM:SM = 1:4), read-out: MIC",1 µg/mL
same,MIC,"[2]; Enterococcus faecalis, ATCC19433, Concomitant (PAPM:SM = 1:1), E. faecalis ATCC19433, read-out: MIC concomitant",1 µg/mL
same,MIC,"[2]; Enterococcus faecalis, ATCC19433, Concomitant (PIPC:SM = 1:1), E. faecalis ATCC19433, read-out: MIC concomitant",0.5 µg/mL
same,MIC,"[2]; Enterococcus faecalis, ATCC19433, Concomitant drug (MEPM:SM = 2:1), read-out: MIC",0.5 µg/mL
same,MIC,"[2]; Enterococcus faecalis, ATCC19433, alone, read-out: MIC",1 µg/mL
same,MIC,"[2]; Enterococcus faecalis, ATCC19433, drug alone, E. faecalis ATCC19433, read-out: MIC alone",2 µg/mL
same,MIC,[2]; alone,2 µg/mL
same,MIC alone,"[2]; drug alone, E. faecalis ATCC19433",1 µg/mL
same,MIC,"[3]; ML1410RP4, Concomitant (IPM:SM = 1:1)",0.125 µg/mL
same,MIC,"[3]; ML1410RP4, Concomitant (MEPM:SM = 1:1)",≤ 0.016 µg/mL
same,MIC,"[3]; ML1410RP4, Concomitant (MEPM:SM = 1:2)",≤ 0.031 µg/mL
same,MIC,"[3]; ML1410RP4, Concomitant (MEPM:SM = 1:4)",≤ 0.063 µg/mL
same,MIC,"[3]; ML1410RP4, Concomitant drug (MEPM:SM = 2:1)",≤ 0.008 µg/mL
same,MIC,"[3]; ML1410RP4, alone",0.5 µg/mL
same,MIC,"[3]; ML1410RP4, read-out: MIC alone, drug alone, E. coli ML1410 RP4",0.5 µg/mL
same,MIC,"[3]; ML1410RP4, read-out: MIC concomitant, Concomitant (AZT:SM = 1:1), E. coli ML1410 RP4",0.063 µg/mL
same,MIC,"[3]; ML1410RP4, read-out: MIC concomitant, Concomitant (BIPM:SM = 1:1), E. coli ML1410 RP4",0.125 µg/mL
same,MIC,"[3]; ML1410RP4, read-out: MIC concomitant, Concomitant (CAZ:SM = 1:1), E. coli ML1410 RP4",0.125 µg/mL
same,MIC,"[3]; ML1410RP4, read-out: MIC concomitant, Concomitant (CPFX:SM = 1:1), E. coli ML1410 RP4",0.25 µg/mL
same,MIC,"[3]; ML1410RP4, read-out: MIC concomitant, Concomitant (DRPM:SM = 1:1), E. coli ML1410 RP4",0.031 µg/mL
same,MIC,"[3]; ML1410RP4, read-out: MIC concomitant, Concomitant (PAPM:SM = 1:1), E. coli ML1410 RP4",0.125 µg/mL
same,MIC,"[3]; ML1410RP4, read-out: MIC concomitant, Concomitant (PIPC:SM = 1:1), E. coli ML1410 RP4",0.5 µg/mL
